Source: the NIST ThermoML archive (doi:10.1021/je0604232)
Numbers after ± are expanded uncertainties.

Experiment: molar heat capacity at constant pressure
Details: Liquid

NCCNCCO [N-(2-aminoethyl)ethanolamine]
101 kPa
Details | molar heat capacity at constant pressure [J/K/mol]
303.15 K | 279 ± 2
308.15 K | 284 ± 2
313.15 K | 285 ± 2
318.15 K | 286 ± 2
323.15 K | 287 ± 2
328.15 K | 289 ± 2
333.15 K | 290 ± 2
338.15 K | 292 ± 2
343.15 K | 293 ± 2
348.15 K | 295 ± 2
353.15 K | 296 ± 2

CNCCO [2-(methylamino)ethanol]
101 kPa
Details | molar heat capacity at constant pressure [J/K/mol]
303.15 K | 194 ± 2
308.15 K | 199 ± 2
313.15 K | 200 ± 2
318.15 K | 202 ± 2
323.15 K | 203 ± 2
328.15 K | 205 ± 2
333.15 K | 206 ± 2
338.15 K | 207 ± 2
343.15 K | 208 ± 2
348.15 K | 210 ± 2
353.15 K | 212 ± 2

NCCCO [3-amino-1-propanol]
101 kPa
Details | molar heat capacity at constant pressure [J/K/mol]
303.15 K | 204 ± 2
308.15 K | 207 ± 2
313.15 K | 208 ± 2
318.15 K | 208 ± 2
323.15 K | 209 ± 2
328.15 K | 210 ± 2
333.15 K | 211 ± 2
338.15 K | 213 ± 2
343.15 K | 214 ± 2
348.15 K | 216 ± 2
353.15 K | 217 ± 2

CN(C)CCO [2-(N,N-dimethylamino)ethanol]
101 kPa
Details | molar heat capacity at constant pressure [J/K/mol]
303.15 K | 213 ± 2
308.15 K | 215 ± 2
313.15 K | 217 ± 2
318.15 K | 219 ± 2
323.15 K | 221 ± 2
328.15 K | 222 ± 2
333.15 K | 223 ± 2
338.15 K | 223 ± 2
343.15 K | 223 ± 2
348.15 K | 224 ± 2
353.15 K | 226 ± 2

NCCO [2-aminoethan-1-ol]
101.33 kPa
Details | molar heat capacity at constant pressure [J/K/mol]
303.15 K | 168 ± 1
308.15 K | 169 ± 1
313.15 K | 169 ± 1
318.15 K | 171 ± 2
323.15 K | 173 ± 2
328.15 K | 174 ± 2
333.15 K | 175 ± 2
338.15 K | 178 ± 2
343.15 K | 179 ± 2
348.15 K | 180 ± 2
353.15 K | 182 ± 2

CC(O)CN (configuration not stated) [1-amino-2-propanol]
101 kPa
Details | molar heat capacity at constant pressure [J/K/mol]
303.15 K | 209 ± 2
308.15 K | 213 ± 2
313.15 K | 214 ± 2
318.15 K | 215 ± 2
323.15 K | 217 ± 2
328.15 K | 218 ± 2
333.15 K | 221 ± 2
338.15 K | 223 ± 2
343.15 K | 225 ± 2
348.15 K | 228 ± 2
353.15 K | 230 ± 2

CN(CCO)CCO [N-methyldiethanolamine]
101.33 kPa
Details | molar heat capacity at constant pressure [J/K/mol]
303.15 K | 273 ± 2
308.15 K | 276 ± 2
313.15 K | 279 ± 2
318.15 K | 282 ± 2
323.15 K | 285 ± 2
328.15 K | 288 ± 2
333.15 K | 290 ± 2
338.15 K | 294 ± 2
343.15 K | 298 ± 2
348.15 K | 301 ± 3
353.15 K | 304 ± 3
